Holding throughout (type): functional, organism-based
Assay [1] deals with Rattus norvegicus. Nature of the assay: Carcinogenic activity on other sites after oral administration.
In assay [2] the test system is Rattus norvegicus. In words: Carcinogenic activity on liver after oral administration.
Assay [3] concerns Rattus norvegicus. Nature of the assay: Carcinogenic activity on all sites after oral administration.
Assay [4] concerns Rattus norvegicus. Nature of the assay: Carcinogenic activity on breast after oral administration of the compound.
The subject of assay [5] is Rattus norvegicus. In words: Carcinogenic activity on mixed data after oral administration.
Assay [6] relates to Rattus norvegicus. In words: Carcinogenic activity on ear duct after oral administration.

With `Nc1ccc(Cc2ccc(N)c(Cl)c2)cc1Cl`, the Activity result in the assay with Rattus norvegicus [1], in the assay with Rattus norvegicus [2] and with Rattus norvegicus [3] was “Carcinogenic activity” each time.
Regarding `Nc1ccc2ccc3ccccc3c2c1`, the Activity result in the assay with Rattus norvegicus [4] and in the assay on Rattus norvegicus [3] was “Carcinogenic activity” each time.
As for `COc1cc(/N=N/c2ccccc2)ccc1N`, the Activity entry with Rattus norvegicus [1], in the assay with Rattus norvegicus [5], in the assay with Rattus norvegicus [2], in the assay with Rattus norvegicus [6] and in the assay with Rattus norvegicus [3] was “Carcinogenic activity” in each case.
In the case of `CN(C)c1ccc(/C=C/c2ccc(F)cc2)cc1`, the Activity result with Rattus norvegicus [6] and with Rattus norvegicus [3] was “Carcinogenic activity” throughout.
Turning to `CN(C)c1ccc(/C=C/c2ccccc2)cc1`, the Activity entry with Rattus norvegicus [6] and in the assay with Rattus norvegicus [3] was “Carcinogenic activity” throughout.
On to `CC(=O)Nc1ccc2c(c1)Sc1ccccc1C2`, for which the Activity result with Rattus norvegicus [1], in the assay with Rattus norvegicus [5], in the assay with Rattus norvegicus [4], in the assay on Rattus norvegicus [6] and in the assay with Rattus norvegicus [3] was “Carcinogenic activity” in each case.
On to `CC(=O)Nc1ccc2c(c1)Cc1cccc(NC(C)=O)c1-2`, for which the Activity entry with Rattus norvegicus [4] and in the assay with Rattus norvegicus [3] was “Carcinogenic activity” each time.
Turning to `NCC(=O)Nc1ccc2c(c1)-c1ccccc1C2`, the Activity entry in the assay on Rattus norvegicus [2] and in the assay with Rattus norvegicus [3] was “Carcinogenic activity” in each case.
For the compound `CC(=O)Nc1ccc2c(c1)oc1ccccc12`, the Activity result in the assay on Rattus norvegicus [4], with Rattus norvegicus [6] and in the assay with Rattus norvegicus [3] was “Carcinogenic activity” throughout.
For the compound `CC(=O)Nc1ccc2c(c1)Cc1cccc(F)c1-2`, the Activity result with Rattus norvegicus [4], in the assay with Rattus norvegicus [6] and in the assay with Rattus norvegicus [3] was “Carcinogenic activity” each time.
Regarding `O=CNc1ccc2c(c1)Cc1ccccc1-2`, the Activity result in the assay on Rattus norvegicus [4], in the assay on Rattus norvegicus [6] and with Rattus norvegicus [3] was “Carcinogenic activity” in each case.
`Cc1cc2ccccc2cc1N`: the Activity entry in the assay on Rattus norvegicus [1], with Rattus norvegicus [4] and with Rattus norvegicus [3] was “Carcinogenic activity” throughout.
For `CN(C)c1ccc(/C=C/c2ccccc2F)cc1`, the Activity result with Rattus norvegicus [5], in the assay on Rattus norvegicus [4], with Rattus norvegicus [2], in the assay on Rattus norvegicus [6] and in the assay on Rattus norvegicus [3] was “Carcinogenic activity” each time.
For the compound `Cc1cccc(/N=N/c2cc(C)ccc2N)c1`, the Activity entry in the assay on Rattus norvegicus [2] and in the assay on Rattus norvegicus [3] was “Carcinogenic activity” in each case.
For the compound `ONc1cccc2ccccc12`, the Activity entry in the assay with Rattus norvegicus [1] and in the assay on Rattus norvegicus [3] was “Carcinogenic activity” throughout.
`CN(C)Nc1nc(-c2ccc([N+](=O)[O-])o2)cs1`: the Activity entry in the assay with Rattus norvegicus [1] and in the assay on Rattus norvegicus [3] was “Carcinogenic activity” throughout.
On to `Cc1cc(-c2ccccc2)ccc1N`, for which the Activity result in the assay on Rattus norvegicus [1], with Rattus norvegicus [6] and with Rattus norvegicus [3] was “Carcinogenic activity” in each case.
With `O=C(O)CCC(=O)Nc1ccc2c(c1)Cc1ccccc1-2`, the Activity result in the assay on Rattus norvegicus [2] and with Rattus norvegicus [3] was “Carcinogenic activity” each time.
For the compound `Nc1ccc(/N=N/c2ccccc2)cc1`, the Activity entry in the assay on Rattus norvegicus [1] and in the assay on Rattus norvegicus [3] was “Carcinogenic activity” throughout.
In the case of `Nc1ccc(/C=C/c2ccc3ccccc3n2)cc1`, the Activity entry in the assay with Rattus norvegicus [6] and with Rattus norvegicus [3] was “Carcinogenic activity” in each case.
With `CC(=O)Nc1ccc2c(c1F)Cc1ccccc1-2`, the Activity entry in the assay on Rattus norvegicus [4], in the assay with Rattus norvegicus [6] and in the assay with Rattus norvegicus [3] was “Carcinogenic activity” throughout.
Take `Nc1cc2ccccc2cc1[N+](=O)[O-]`: the Activity entry in the assay on Rattus norvegicus [1] and in the assay on Rattus norvegicus [3] was “Carcinogenic activity” each time.
Turning to `Cc1cccc(/C=C/c2ccc(N(C)C)cc2)c1`, the Activity entry in the assay on Rattus norvegicus [6] and in the assay on Rattus norvegicus [3] was “Carcinogenic activity” throughout.
For `O=CNc1nc(-c2ccc([N+](=O)[O-])o2)cs1`, the Activity result with Rattus norvegicus [1], with Rattus norvegicus [4] and with Rattus norvegicus [3] was “Carcinogenic activity” throughout.
On to `CCN(CC)c1ccc2c(c1)Cc1ccccc1-2`, for which the Activity result in the assay on Rattus norvegicus [1] and in the assay on Rattus norvegicus [3] was “Carcinogenic activity” throughout.
In the case of `CC(=O)Nc1cc2c(cc1I)-c1ccccc1C2`, the Activity entry with Rattus norvegicus [6] and with Rattus norvegicus [3] was “Carcinogenic activity” in each case.
On to `CC(=O)Nc1ccc(/C=C/c2ccccc2)cc1`, for which the Activity entry in the assay with Rattus norvegicus [4], in the assay on Rattus norvegicus [6] and in the assay with Rattus norvegicus [3] was “Carcinogenic activity” throughout.
As to `CC(=O)Nc1nc(-c2ccc([N+](=O)[O-])o2)no1`, the Activity entry with Rattus norvegicus [1], with Rattus norvegicus [2] and in the assay on Rattus norvegicus [3] was “Carcinogenic activity” throughout.
Take `O=C(Nc1ccc2c(c1)Cc1ccccc1-2)C(F)(F)F`: the Activity result in the assay with Rattus norvegicus [5], in the assay with Rattus norvegicus [4], in the assay on Rattus norvegicus [2], with Rattus norvegicus [6] and in the assay on Rattus norvegicus [3] was “Carcinogenic activity” in each case.
Take `Nc1ccc(-c2cccc(F)c2)cc1`: the Activity result in the assay with Rattus norvegicus [4] and with Rattus norvegicus [3] was “Carcinogenic activity” in each case.
`CC(=O)Nc1cc(F)c2c(c1)Cc1ccccc1-2`: the Activity result in the assay on Rattus norvegicus [4], in the assay on Rattus norvegicus [6] and in the assay on Rattus norvegicus [3] was “Carcinogenic activity” throughout.
For the compound `Nc1ccc(-c2ccc(N)c(Cl)c2)cc1Cl`, the Activity entry in the assay on Rattus norvegicus [1], in the assay with Rattus norvegicus [5], in the assay with Rattus norvegicus [4], in the assay on Rattus norvegicus [6] and with Rattus norvegicus [3] was “Carcinogenic activity” in each case.
`CC(=O)Nc1ccc2c(c1)Cc1ccccc1S2`: the Activity entry in the assay on Rattus norvegicus [1], in the assay on Rattus norvegicus [5], with Rattus norvegicus [4], with Rattus norvegicus [6] and in the assay with Rattus norvegicus [3] was “Carcinogenic activity” each time.
In the case of `ONc1ccc(/C=C/c2ccccc2)cc1`, the Activity result in the assay with Rattus norvegicus [1] and in the assay with Rattus norvegicus [3] was “Carcinogenic activity” each time.
Turning to `CC(=O)Nc1ccc2c(c1)Cc1c(F)cccc1-2`, the Activity entry in the assay with Rattus norvegicus [5], in the assay on Rattus norvegicus [4], with Rattus norvegicus [2], with Rattus norvegicus [6] and with Rattus norvegicus [3] was “Carcinogenic activity” in each case.
Take `CN(C)c1ccc2cc3ccc(N(C)C)cc3nc2c1`: the Activity result in the assay on Rattus norvegicus [2] and in the assay with Rattus norvegicus [3] was “Carcinogenic activity” in each case.
On to `Nc1nc[nH]n1`, for which the Activity entry in the assay with Rattus norvegicus [1], in the assay on Rattus norvegicus [2] and in the assay on Rattus norvegicus [3] was “Carcinogenic activity” throughout.
Regarding `COc1ccc2c(c1)Cc1cc(NC(C)=O)ccc1-2`, the Activity result with Rattus norvegicus [5], with Rattus norvegicus [4], with Rattus norvegicus [2], in the assay on Rattus norvegicus [6] and in the assay on Rattus norvegicus [3] was “Carcinogenic activity” throughout.
`COc1ccc(/N=N/c2ccc(N)c(OC)c2)cc1`: the Activity result with Rattus norvegicus [1], in the assay on Rattus norvegicus [2] and in the assay with Rattus norvegicus [3] was “Carcinogenic activity” throughout.
For the compound `CN(C)c1ccc(/C=C/c2ccc(Cl)cc2)cc1`, the Activity entry in the assay on Rattus norvegicus [6] and in the assay with Rattus norvegicus [3] was “Carcinogenic activity” each time.
`Cn1cnc([N+](=O)[O-])c1Sc1ncnc2[nH]cnc12`: the Activity result with Rattus norvegicus [1], in the assay with Rattus norvegicus [6] and in the assay on Rattus norvegicus [3] was “Carcinogenic activity” each time.
Consider `CC(=O)N(O)c1ccc(/C=C/c2ccccc2)cc1`, for which the Activity result in the assay on Rattus norvegicus [1], in the assay on Rattus norvegicus [5], in the assay with Rattus norvegicus [4], in the assay on Rattus norvegicus [6] and with Rattus norvegicus [3] was “Carcinogenic activity” throughout.
On to `Nc1nc(N)nc(-c2ccc([N+](=O)[O-])o2)n1`, for which the Activity entry in the assay with Rattus norvegicus [4] and with Rattus norvegicus [3] was “Carcinogenic activity” throughout.
For `Nc1ccc2c(c1)Cc1cc(N)ccc1-2`, the Activity entry with Rattus norvegicus [4] and with Rattus norvegicus [3] was “Carcinogenic activity” throughout.
With `Nc1ccc2c(c1)CCc1ccccc1-2`, the Activity entry in the assay on Rattus norvegicus [1], in the assay on Rattus norvegicus [5], in the assay with Rattus norvegicus [6] and with Rattus norvegicus [3] was “Carcinogenic activity” in each case.
Turning to `Nc1ccc(-c2ccccc2)cc1F`, the Activity result in the assay on Rattus norvegicus [4] and in the assay on Rattus norvegicus [3] was “Carcinogenic activity” throughout.
For the compound `CC(=O)N(O)c1ccc(-c2ccccc2)cc1`, the Activity result with Rattus norvegicus [1], with Rattus norvegicus [5], with Rattus norvegicus [4], in the assay on Rattus norvegicus [6] and in the assay on Rattus norvegicus [3] was “Carcinogenic activity” throughout.
Consider `Nc1cc2ccccc2c2ccccc12`, for which the Activity result in the assay on Rattus norvegicus [4] and in the assay with Rattus norvegicus [3] was “Carcinogenic activity” in each case.
